In the supplement of paper PMC8612539:
In brackets after ≈: the same amount, converted by molar mass.

Test system: Escherichia coli
Assay: minimum inhibitory concentration (MIC)
Method: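 Broth microdilution MIC (Sensititre BOPO7F bovine plate, CLSI methods) of 19 antimicrobials against field isolates of P. multocida, M. haemolytica, H. somni (deep nasopharyngeal swabs) and E. coli, Enterococcus spp. (rectal swabs) from weaned dairy heifers. Incubation 16-24 h at 35 C. MIC is the lowest concentration preventing visible growth. Values with <= or > lie at the tested range limits. Trimethoprim-sulfamethoxazole is given as the trimethoprim component of a 1:19 mixture.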

CCN1CCN(c2cc3c(cc2F)c(=O)c(C(=O)O)cn3C2CC2)CC1 [Enrofloxacin]
Settings	minimum inhibitory concentration [µg/mL]
isolate (source animal id): 8	≤ 0.12
isolate (source animal id): 9	> 2
isolate (source animal id): 10	≤ 0.12
isolate (source animal id): 11	≤ 0.12
isolate (source animal id): 12	> 2
isolate (source animal id): 13	≤ 0.12
isolate (source animal id): 14	0.5 (≈ 1.39 µM)
isolate (source animal id): 15	≤ 0.12
isolate (source animal id): 16	≤ 0.12
isolate (source animal id): 98	≤ 0.12
isolate (source animal id): 99	≤ 0.12
isolate (source animal id): 100	≤ 0.12
isolate (source animal id): 101	≤ 0.12
isolate (source animal id): 102	≤ 0.12
isolate (source animal id): 103	≤ 0.12
isolate (source animal id): 104	≤ 0.12
isolate (source animal id): 105	≤ 0.12
isolate (source animal id): 106	> 2
isolate (source animal id): 107	≤ 0.12
isolate (source animal id): 108	≤ 0.12
isolate (source animal id): 109	≤ 0.12
isolate (source animal id): 110	≤ 0.12
isolate (source animal id): 111	> 2
isolate (source animal id): 112	≤ 0.12
isolate (source animal id): 113	1 (≈ 2.78 µM)
isolate (source animal id): 114	≤ 0.12
isolate (source animal id): 115	1 (≈ 2.78 µM)
isolate (source animal id): 116	1 (≈ 2.78 µM)
isolate (source animal id): 117	≤ 0.12
isolate (source animal id): 118	0.5 (≈ 1.39 µM)
isolate (source animal id): 119	> 2
isolate (source animal id): 120	1 (≈ 2.78 µM)
isolate (source animal id): 121	≤ 0.12
isolate (source animal id): 122	≤ 0.12
isolate (source animal id): 123	≤ 0.12
isolate (source animal id): 124	> 2
isolate (source animal id): 125	≤ 0.12
isolate (source animal id): 126	> 2
isolate (source animal id): 127	≤ 0.12
isolate (source animal id): 128	≤ 0.12
isolate (source animal id): 129	1 (≈ 2.78 µM)
isolate (source animal id): 130	≤ 0.12
isolate (source animal id): 131	2 (≈ 5.56 µM)
isolate (source animal id): 132	0.5 (≈ 1.39 µM)
isolate (source animal id): 133	≤ 0.12
isolate (source animal id): 134	≤ 0.12
isolate (source animal id): 135	≤ 0.12
isolate (source animal id): 136	≤ 0.12
isolate (source animal id): 137	0.5 (≈ 1.39 µM)
isolate (source animal id): 138	> 2
isolate (source animal id): 139	0.25 (≈ 0.696 µM)
isolate (source animal id): 140	≤ 0.12
isolate (source animal id): 141	≤ 0.12
isolate (source animal id): 142	≤ 0.12
isolate (source animal id): 143	1 (≈ 2.78 µM)
isolate (source animal id): 144	> 2
isolate (source animal id): 145	≤ 0.12
isolate (source animal id): 146	0.5 (≈ 1.39 µM)
isolate (source animal id): 147	> 2
isolate (source animal id): 148	0.25 (≈ 0.696 µM)
isolate (source animal id): 149	≤ 0.12
isolate (source animal id): 150	≤ 0.12
isolate (source animal id): 151	≤ 0.12
isolate (source animal id): 152	≤ 0.12
isolate (source animal id): 153	≤ 0.12
isolate (source animal id): 154	0.5 (≈ 1.39 µM)
isolate (source animal id): 155	≤ 0.12
isolate (source animal id): 156	1 (≈ 2.78 µM)
isolate (source animal id): 157	≤ 0.12
isolate (source animal id): 158	≤ 0.12
isolate (source animal id): 159	≤ 0.12
isolate (source animal id): 160	≤ 0.12
isolate (source animal id): 161	≤ 0.12
isolate (source animal id): 162	> 2
isolate (source animal id): 163	≤ 0.12
isolate (source animal id): 164	≤ 0.12
isolate (source animal id): 165	≤ 0.12
isolate (source animal id): 166	≤ 0.12
isolate (source animal id): 167	≤ 0.12
isolate (source animal id): 168	≤ 0.12
isolate (source animal id): 169	≤ 0.12
isolate (source animal id): 170	≤ 0.12
isolate (source animal id): 171	≤ 0.12
isolate (source animal id): 172	≤ 0.12
isolate (source animal id): 173	≤ 0.12
isolate (source animal id): 174	≤ 0.12
isolate (source animal id): 175	≤ 0.12
isolate (source animal id): 176	≤ 0.12
isolate (source animal id): 177	≤ 0.12
isolate (source animal id): 178	≤ 0.12
isolate (source animal id): 179	≤ 0.12
isolate (source animal id): 180	≤ 0.12
isolate (source animal id): 181	≤ 0.12
isolate (source animal id): 182	≤ 0.12
isolate (source animal id): 183	≤ 0.12
isolate (source animal id): 184	≤ 0.12
isolate (source animal id): 185	≤ 0.12
isolate (source animal id): 186	≤ 0.12
isolate (source animal id): 187	≤ 0.12
isolate (source animal id): 188	2 (≈ 5.56 µM)
